Data taken from US20260166039A1 (SCHRÖDINGER, INC., priority 2022, published 2026).

These molecules were tested against T1, Wee1 kinase domain (Homo sapiens, UniProt P30291) (assay: Wee1 Kinase Biochemical Assay (ADP-Glo)). Conditions: Wee1 kinase domain, 15 uM ATP, ADP-Glo.
T1 construct: Wee1 kinase domain was purchased from Carna (catalog #05-177); purchased Carna 05-177
T1 sequence (P30291 299-569 limits assumed): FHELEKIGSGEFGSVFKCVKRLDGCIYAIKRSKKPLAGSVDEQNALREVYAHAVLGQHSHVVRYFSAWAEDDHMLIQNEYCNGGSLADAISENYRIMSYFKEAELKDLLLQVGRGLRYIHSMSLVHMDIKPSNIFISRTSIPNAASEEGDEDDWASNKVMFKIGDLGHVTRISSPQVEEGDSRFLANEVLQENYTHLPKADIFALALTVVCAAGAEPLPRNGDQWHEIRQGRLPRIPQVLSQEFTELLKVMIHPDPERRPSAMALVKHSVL
Method: Wee1 Kinase Biochemical Assay Protocol
Wee1 kinase domain was purchased from Carna (catalog #05-177). Wee1 kinase activity was determined with Poly(Lys,Tyr 4:1) hydrobromide as a substrate (Sigma-Aldrich) and by measuring ADP production using the ADP-Glo Kinase Assay kit (Promega) following the manufacturer's instructions. The kinase reaction was performed using the following conditions:
Buffer: 40 mM Tris-HCl, 20 mM magnesium chloride, supplemented with 0.1 mg/mL bovine serum albumin and 2 mM DTT. The final reaction mix contained 1 nM Wee1 enzyme, 15 uM ATP, and 2 ng/mL Poly(Lys,Tyr 4:1) hydrobromide substrate. The reaction time was 4 hours at 25° C.
The ADP-Glo signal was measured using the Envision plate reader and the percentage inhibition of kinase activity calculated for each inhibitor tested. Percent inhibition of Wee1 kinase activity was calculated based on the following formula.
[formula] • SSample: the signal of compounds • SHigh Ctrl: the signal of high control (DMSO) • SLow Ctrl: the signal of low control (positive control Wee1 inhibitor at saturating concentration)
CC1(C)C[C@@H]2N(c3cccc(N=S(C)(C)=O)n3)c3nc(Nc4ccc(C5CNC5)nc4)ncc3[C@]2(C)CO1 (single isomer, unassigned) [Example 191] gave an IC50 of 0.1 to 1 µM.
Molecule CN1CC(c2ccc(Nc3ncc4c(n3)N(c3cccc(N=S(C)(C)=O)n3)[C@H]3CC(C)(C)OC[C@@]43C)cn2)C1 (single isomer, unassigned) [Example 193] has an IC50 of 0.1 to 1 µM.
Work on CN1CC[C@H](n2cc(Nc3ncc4c(n3)N(c3cccc(N=S(C)(C)=O)n3)[C@H]3CC(C)(C)OC[C@@]43C)cn2)C1 (single isomer, unassigned) [Example 197] yielded an IC50 of 0.1 to 1 µM.
Molecule CN1CCC[C@H](n2cc(Nc3ncc4c(n3)N(c3cccc(N=S(C)(C)=O)n3)[C@H]3CC(C)(C)OC[C@@]43C)cn2)C1 (single isomer, unassigned) [Example 200] has an IC50 of 0.01 to 0.1 µM.
CN1CCC(c2cc(Nc3ncc4c(n3)N(c3cccc(N=S(C)(C)=O)n3)[C@H]3CC(C)(C)OC[C@@]43C)on2)CC1 (single isomer, unassigned) [Example 203] was tested, and the IC50 was 0.1 to 1 µM.
Work on CN1CCC(n2cnc(Nc3ncc4c(n3)N(c3cccc(N=S(C)(C)=O)n3)[C@H]3CC(C)(C)OC[C@@]43C)c2)CC1 (single isomer, unassigned) [Example 206] yielded an IC50 of 0.1 to 1 µM.
CN1CC(n2cc(Nc3ncc4c(n3)N(c3cccc(N=S(C)(C)=O)n3)[C@H]3CC(C)(C)OC[C@@]43C)cn2)C1 (single isomer, unassigned) [Example 208] was tested, and the IC50 was 0.01 to 0.1 µM.
CN1CCC[C@@H]1c1ccc(Nc2ncc3c(n2)N(c2cccc(N=S(C)(C)=O)n2)[C@H]2CC(C)(C)OC[C@@]32C)cn1 (single isomer, unassigned) [Example 209] showed an IC50 of 0.01 to 0.1 µM.
Molecule CC1(C)C[C@@H]2N(c3cccc(N=S(C)(C)=O)n3)c3nc(Nc4ccc([C@H]5CCCN5)nc4)ncc3[C@]2(C)CO1 (single isomer, unassigned) [Example 211] has an IC50 of 0.01 to 0.1 µM.
Work on CC1(C)C[C@@H]2N(c3cccc(N=S(C)(C)=O)n3)c3nc(Nc4ccc([C@@H]5CCCN5)nc4)ncc3[C@]2(C)CO1 (single isomer, unassigned) [Example 213] yielded an IC50 of 0.01 to 0.1 µM.
CN1CCC[C@H]1c1ccc(Nc2ncc3c(n2)N(c2cccc(N=S(C)(C)=O)n2)[C@H]2CC(C)(C)OC[C@@]32C)cn1 (single isomer, unassigned) [Example 215] was tested, and the IC50 was 0.1 to 1 µM.
Work on CN1C[C@@H]2CN(c3ccc(Nc4ncc5c(n4)N(c4cccc(N=S(C)(C)=O)n4)[C@H]4CC(C)(C)OC[C@@]54C)cc3)C[C@@H]2C1 (single isomer, unassigned) [Example 218] yielded an IC50 of 0.01 to 0.1 µM.
With CN1CC2(C1)CN(c1ccc(Nc3ncc4c(n3)N(c3cccc(N=S(C)(C)=O)n3)[C@H]3CC(C)(C)OC[C@@]43C)cc1)C2 (single isomer, unassigned) [Example 220] the IC50 was 0.1 to 1 µM.
CN1CCC(n2ccc(Nc3ncc4c(n3)N(c3cccc(N=S(C)(C)=O)n3)[C@@H]3CC(C)(C)OC[C@]43C)n2)CC1 (single isomer, unassigned) [Example 229] gave an IC50 of 0.01 to 0.1 µM.
In the case of C[C@H]1COC(=O)N1c1cccc(N2c3nc(Nc4ccc(N5CCN(C)CC5)cc4)ncc3[C@@]3(C)COC(C)(C)C[C@@H]23)n1 (single isomer, unassigned) [Example 234], the IC50 is reported as 0.01 to 0.1 µM.
In the case of Cc1cc(Nc2ncc3c(n2)N(c2cccc(N4C(=O)OC[C@@H]4C)n2)[C@H]2CC(C)(C)OC[C@@]32C)ccc1N1CCN(C)CC1 (single isomer, unassigned) [Example 236], the IC50 is reported as 0.01 to 0.1 µM.
For Cc1cc(Nc2ncc3c(n2)N(c2cccc(N4C(=O)OC[C@@H]4C)n2)[C@H]2CC(C)(C)OC[C@@]32C)ccc1C1CCN(C)CC1 (single isomer, unassigned) [Example 239], the IC50 was < 0.01 µM.
C[C@H]1COC(=O)N1c1cccc(N2c3nc(Nc4ccc(N5CCN(C)CC5)nc4)ncc3[C@]3(C)COC(C)(C)C[C@H]23)n1 (single isomer, unassigned) [Example 240] showed an IC50 of 0.1 to 1 µM.
C[C@H]1COC(=O)N1c1cccc(N2c3nc(Nc4cnn(C5CCN(C)CC5)c4)ncc3[C@]3(C)COC(C)(C)C[C@H]23)n1 (single isomer, unassigned) [Example 242] was tested, and the IC50 was 0.01 to 0.1 µM.
C[C@H]1COC(=O)N1c1cccc(N2c3nc(Nc4ccc(N5C[C@@H]6C[C@H]5CN6C)cc4)ncc3[C@]3(C)COC(C)(C)C[C@H]23)n1 (single isomer, unassigned) [Example 244] gave an IC50 of 0.01 to 0.1 µM.
For C[C@H]1COC(=O)N1c1cccc(N2c3nc(Nc4ccc(N5CCN(C)CC5)nn4)ncc3[C@]3(C)COC(C)(C)C[C@H]23)n1 (single isomer, unassigned) [Example 248], the IC50 was 0.1 to 1 µM.
In the case of C[C@H]1COC(=O)N1c1cccc(N2c3nc(Nc4ccc(C5CCN(C)CC5)cc4)ncc3[C@]3(C)COC(C)(C)C[C@H]23)n1 (single isomer, unassigned) [Example 250], the IC50 is reported as 0.01 to 0.1 µM.
C[C@H]1COC(=O)N1c1cccc(N2c3nc(Nc4cn(C5CCN(C)CC5)nn4)ncc3[C@]3(C)COC(C)(C)C[C@H]23)n1 (single isomer, unassigned) [Example 252] was tested, and the IC50 was 0.1 to 1 µM.
C[C@H]1COC(=O)N1c1cccc(N2c3nc(Nc4cnn(C5CCNCC5)c4)ncc3[C@]3(C)COC(C)(C)C[C@H]23)n1 (single isomer, unassigned) [Example 254] showed an IC50 of 0.01 to 0.1 µM.
Work on C[C@H]1COC(=O)N1c1cccc(N2c3nc(Nc4ccc([C@@H]5CCNC5)nc4)ncc3[C@]3(C)COC(C)(C)C[C@H]23)n1 (single isomer, unassigned) [Example 256] yielded an IC50 of 0.01 to 0.1 µM.
With C[C@H]1COC(=O)N1c1cccc(N2c3nc(Nc4ccc([C@H]5CCNC5)nc4)ncc3[C@]3(C)COC(C)(C)C[C@H]23)n1 (single isomer, unassigned) [Example 258] the IC50 was 0.1 to 1 µM.
Work on C[C@H]1COC(=O)N1c1cccc(N2c3nc(Nc4ccc(N5CCNCC5)cc4)ncc3[C@]3(C)COC(C)(C)C[C@H]23)n1 (single isomer, unassigned) [Example 261] yielded an IC50 of 0.01 to 0.1 µM.
Cc1cc(Nc2ncc3c(n2)N(c2cccc(N4C(=O)OC[C@@H]4C)n2)[C@H]2CC(C)(C)OC[C@@]32C)ccc1[C@H]1CCNC1 (single isomer, unassigned) [Example 266] was tested, and the IC50 was 0.01 to 0.1 µM.
In the case of Cc1cc(Nc2ncc3c(n2)N(c2cccc(N4C(=O)OC[C@@H]4C)n2)[C@H]2CC(C)(C)OC[C@@]32C)ccc1[C@@H]1CCNC1 (single isomer, unassigned) [Example 268], the IC50 is reported as 0.01 to 0.1 µM.
C[C@H]1COC(=O)N1c1cccc(N2c3nc(Nc4ccc(N5CCN(C)CC5=O)cc4)ncc3[C@]3(C)COC(C)(C)C[C@H]23)n1 (single isomer, unassigned) [Example 270] was tested, and the IC50 was 0.01 to 0.1 µM.
For C[C@H]1COC(=O)N1c1cccc(N2c3nc(Nc4ccn(C5CCN(C)CC5)c(=O)c4)ncc3[C@]3(C)COC(C)(C)C[C@H]23)n1 (single isomer, unassigned) [Example 272], the IC50 was 0.01 to 0.1 µM.
C[C@H]1COC(=O)N1c1cccc(N2c3nc(Nc4ccc([C@@H]5CCNC5)cc4)ncc3[C@]3(C)COC(C)(C)C[C@H]23)n1 (single isomer, unassigned) [Example 274] gave an IC50 of 0.01 to 0.1 µM.
C[C@H]1COC(=O)N1c1cccc(N2c3nc(Nc4ccc(N5C[C@H]6C[C@@H]5CN6)cc4)ncc3[C@]3(C)COC(C)(C)C[C@H]23)n1 (single isomer, unassigned) [Example 276] showed an IC50 of 0.01 to 0.1 µM.
C[C@H]1COC(=O)N1c1cccc(N2c3nc(Nc4ccc([C@H]5CCNC5)cc4)ncc3[C@]3(C)COC(C)(C)C[C@H]23)n1 (single isomer, unassigned) [Example 278] gave an IC50 of 0.01 to 0.1 µM.
With C[C@H]1COC(=O)N1c1cccc(N2c3nc(Nc4ccc(O[C@H]5CCN(C)C5)nc4)ncc3[C@]3(C)COC(C)(C)C[C@H]23)n1 (single isomer, unassigned) [Example 280] the IC50 was 0.1 to 1 µM.
In the case of C[C@H]1COC(=O)N1c1cccc(N2c3nc(Nc4ccc(O[C@@H]5CCN(C)C5)nc4)ncc3[C@]3(C)COC(C)(C)C[C@H]23)n1 (single isomer, unassigned) [Example 282], the IC50 is reported as 0.1 to 1 µM.
C[C@H]1COC(=O)N1c1cccc(N2c3nc(Nc4ccc(O[C@H]5CCNC5)nc4)ncc3[C@]3(C)COC(C)(C)C[C@H]23)n1 (single isomer, unassigned) [Example 284] showed an IC50 of 0.01 to 0.1 µM.
In the case of C[C@H]1COC(=O)N1c1cccc(N2c3nc(Nc4ccc(O[C@@H]5CCNC5)nc4)ncc3[C@]3(C)COC(C)(C)C[C@H]23)n1 (single isomer, unassigned) [Example 286], the IC50 is reported as 0.1 to 1 µM.
In the case of Cc1cc(Nc2ncc3c(n2)N(c2cccc(N4C(=O)OC[C@@H]4C)n2)[C@H]2CC(C)(C)OC[C@@]32C)ccc1N1C[C@H]2C[C@@H]1CN2C (single isomer, unassigned) [Example 288], the IC50 is reported as 0.01 to 0.1 µM.
In the case of C[C@H]1COC(=O)N1c1cccc(N2c3nc(Nc4ccc(N5C[C@H]6C[C@@H]5CN6C)c(F)c4)ncc3[C@]3(C)COC(C)(C)C[C@H]23)n1 (single isomer, unassigned) [Example 290], the IC50 is reported as < 0.01 µM.
In the case of C[C@H]1COC(=O)N1c1cccc(N2c3nc(Nc4ccc(N5C[C@@H]6C[C@H]5CN6C)c(F)c4)ncc3[C@]3(C)COC(C)(C)C[C@H]23)n1 (single isomer, unassigned) [Example 292], the IC50 is reported as 0.01 to 0.1 µM.
Cc1cc(Nc2ncc3c(n2)N(c2cccc(N4C(=O)OC[C@@H]4C)n2)[C@H]2CC(C)(C)OC[C@@]32C)ccc1N1C[C@@H]2C[C@H]1CN2C (single isomer, unassigned) [Example 294] was tested, and the IC50 was 0.01 to 0.1 µM.
C[C@H]1COC(=O)N1c1cccc(N2c3nc(Nc4ccc(C5CCN(C)CC5)nc4)ncc3[C@]3(C)COC(C)(C)C[C@H]23)n1 (single isomer, unassigned) [Example 296] was tested, and the IC50 was < 0.01 µM.
